Results taken from the supplement of paper PMC10307832.

Tests used:
Assay in all cases: relative viability (nuclei count vs DMSO), 5 days (fraction); higher = more cells survive
[1] = test system: NCI-H1651
How it was run: (§1)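 For relative viability, nuclei counts in treated wells were divided by those in vehicle wells. Lung cancer cell lines had been pin-tool dosed in 1536-well plates the day after seeding and cultured for 5 days, then fixed and stained in one step (final 0.05% Triton X-100, 1% formaldehyde, 1 ug/ml Hoechst) and imaged at 4×. Doses were one drug alone or a fixed anchor-drug dose plus five library-drug doses (not always all listed) in √10 steps, and values are duplicate-plate medians.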

[2] = test system: RERF-LC-KJ
How it was run: as §1

[3] = test system: NCI-H838
How it was run: as §1

[4] = test system: NCI-H1648
How it was run: as §1

[5] = test system: NCI-H520
How it was run: as §1

[6] = test system: NCI-H1944
How it was run: as §1

[7] = test system: NCI-H650
How it was run: as §1

SMILES: O=c1cc(N2CCOCC2)oc2c(-c3cccc4c3sc3ccccc34)cccc12 + CC(=O)c1c(C)c2cnc(Nc3ccc(N4CCNCC4)cn3)nc2n(C2CCCC2)c1=O [Palbociclib] (partner 0.5 µM)
- relative viability ([1]; first compound 0.01 µM): 0.528
- relative viability ([1]; first compound 0.03162 µM): 0.486
- relative viability ([1]; first compound 0.1 µM): 0.555
- relative viability ([1]; first compound 0.3162 µM): 0.555
- relative viability ([1]; first compound 1 µM): 0.513
- relative viability ([2]; first compound 0.01 µM): 1.06
- relative viability ([2]; first compound 0.03162 µM): 1.1
- relative viability ([2]; first compound 0.1 µM): 1.04
- relative viability ([2]; first compound 0.3162 µM): 1.09
- relative viability ([2]; first compound 1 µM): 1.08
- relative viability ([3]; first compound 0.01 µM): 0.26
- relative viability ([3]; first compound 0.03162 µM): 0.182
- relative viability ([3]; first compound 0.1 µM): 0.222
- relative viability ([3]; first compound 0.3162 µM): 0.228
- relative viability ([3]; first compound 1 µM): 0.202
- relative viability ([4]; first compound 0.03162 µM): 0.261
- relative viability ([4]; first compound 0.1 µM): 0.273
- relative viability ([4]; first compound 0.3162 µM): 0.284
- relative viability ([4]; first compound 1 µM): 0.292
- relative viability ([5]; first compound 0.01 µM): 0.238
- relative viability ([5]; first compound 0.03162 µM): 0.224
- relative viability ([5]; first compound 0.1 µM): 0.207
- relative viability ([5]; first compound 0.3162 µM): 0.235
- relative viability ([5]; first compound 1 µM): 0.202
- relative viability ([6]; first compound 0.01 µM): 0.331
- relative viability ([6]; first compound 0.03162 µM): 0.332
- relative viability ([6]; first compound 0.1 µM): 0.363
- relative viability ([6]; first compound 0.3162 µM): 0.338
- relative viability ([6]; first compound 1 µM): 0.32
- relative viability ([7]; first compound 0.01 µM): 0.348
- relative viability ([7]; first compound 0.03162 µM): 0.383
- relative viability ([7]; first compound 0.3162 µM): 0.356
- relative viability ([7]; first compound 1 µM): 0.347

SMILES: CCN(CC)CCCCNc1ncc2cc(-c3cc(OC)cc(OC)c3)c(NC(=O)NC(C)(C)C)nc2n1 + CC(=O)c1c(C)c2cnc(Nc3ccc(N4CCNCC4)cn3)nc2n(C2CCCC2)c1=O [Palbociclib] (partner 0.5 µM)
- relative viability ([1]; first compound 0.01 µM): 0.539
- relative viability ([1]; first compound 0.03162 µM): 0.511
- relative viability ([1]; first compound 0.1 µM): 0.547
- relative viability ([1]; first compound 0.3162 µM): 0.541
- relative viability ([1]; first compound 1 µM): 0.47
- relative viability ([2]; first compound 0.01 µM): 1.07
- relative viability ([2]; first compound 0.03162 µM): 1.12
- relative viability ([2]; first compound 0.1 µM): 1.2
- relative viability ([2]; first compound 0.3162 µM): 1.13
- relative viability ([2]; first compound 1 µM): 1.05
- relative viability ([3]; first compound 0.01 µM): 0.197
- relative viability ([3]; first compound 0.03162 µM): 0.223
- relative viability ([3]; first compound 0.1 µM): 0.204
- relative viability ([3]; first compound 0.3162 µM): 0.213
- relative viability ([3]; first compound 1 µM): 0.182
- relative viability ([4]; first compound 0.01 µM): 0.288
- relative viability ([4]; first compound 0.03162 µM): 0.292
- relative viability ([4]; first compound 0.1 µM): 0.237
- relative viability ([4]; first compound 0.3162 µM): 0.274
- relative viability ([4]; first compound 1 µM): 0.238
- relative viability ([5]; first compound 0.01 µM): 0.22
- relative viability ([5]; first compound 0.03162 µM): 0.22
- relative viability ([5]; first compound 0.1 µM): 0.217
- relative viability ([5]; first compound 0.3162 µM): 0.175
- relative viability ([5]; first compound 1 µM): 0.15
- relative viability ([6]; first compound 0.01 µM): 0.35
- relative viability ([6]; first compound 0.03162 µM): 0.345
- relative viability ([6]; first compound 0.1 µM): 0.312
- relative viability ([6]; first compound 0.3162 µM): 0.348
- relative viability ([6]; first compound 1 µM): 0.278
- relative viability ([7]; first compound 0.01 µM): 0.282
- relative viability ([7]; first compound 0.03162 µM): 0.369
- relative viability ([7]; first compound 0.1 µM): 0.331
- relative viability ([7]; first compound 0.3162 µM): 0.308
- relative viability ([7]; first compound 1 µM): 0.32

SMILES: O=c1cc(-c2cccc3c2Sc2ccccc2S3)oc(N2CCOCC2)c1 + CC(=O)c1c(C)c2cnc(Nc3ccc(N4CCNCC4)cn3)nc2n(C2CCCC2)c1=O [Palbociclib] (partner 0.5 µM)
- relative viability ([1]; first compound 0.08 µM): 0.523
- relative viability ([1]; first compound 0.253 µM): 0.537
- relative viability ([1]; first compound 0.8 µM): 0.524
- relative viability ([1]; first compound 2.53 µM): 0.509
- relative viability ([1]; first compound 8 µM): 0.537
- relative viability ([2]; first compound 0.08 µM): 1.11
- relative viability ([2]; first compound 0.253 µM): 1.32
- relative viability ([2]; first compound 0.8 µM): 1.08
- relative viability ([2]; first compound 2.53 µM): 1.04
- relative viability ([2]; first compound 8 µM): 0.971
- relative viability ([3]; first compound 0.08 µM): 0.187
- relative viability ([3]; first compound 0.253 µM): 0.265
- relative viability ([3]; first compound 0.8 µM): 0.202
- relative viability ([3]; first compound 2.53 µM): 0.212
- relative viability ([3]; first compound 8 µM): 0.222
- relative viability ([4]; first compound 0.253 µM): 0.324
- relative viability ([4]; first compound 0.8 µM): 0.281
- relative viability ([4]; first compound 8 µM): 0.302
- relative viability ([5]; first compound 0.08 µM): 0.233
- relative viability ([5]; first compound 0.253 µM): 0.22
- relative viability ([5]; first compound 0.8 µM): 0.21
- relative viability ([5]; first compound 2.53 µM): 0.243
- relative viability ([5]; first compound 8 µM): 0.231
- relative viability ([6]; first compound 0.08 µM): 0.313
- relative viability ([6]; first compound 0.253 µM): 0.329
- relative viability ([6]; first compound 0.8 µM): 0.302
- relative viability ([6]; first compound 2.53 µM): 0.335
- relative viability ([6]; first compound 8 µM): 0.318
- relative viability ([7]; first compound 0.08 µM): 0.346
- relative viability ([7]; first compound 0.253 µM): 0.323
- relative viability ([7]; first compound 0.8 µM): 0.372
- relative viability ([7]; first compound 2.53 µM): 0.278
- relative viability ([7]; first compound 8 µM): 0.36

SMILES: O=c1cc(N2CCOCC2)oc2c(-c3cccc4c3sc3ccccc34)cccc12 + Nc1nc2[nH]cc(CCc3ccc(C(=O)N[C@@H](CCC(=O)O)C(=O)O)cc3)c2c(=O)[nH]1 [Pemetrexed] (partner 0.2 µM)
- relative viability ([1]; first compound 0.01 µM): 0.547
- relative viability ([1]; first compound 0.03162 µM): 0.564
- relative viability ([1]; first compound 0.1 µM): 0.569
- relative viability ([1]; first compound 0.3162 µM): 0.552
- relative viability ([1]; first compound 1 µM): 0.578
- relative viability ([2]; first compound 0.01 µM): 0.474
- relative viability ([2]; first compound 0.03162 µM): 0.478
- relative viability ([2]; first compound 0.1 µM): 0.492
- relative viability ([2]; first compound 0.3162 µM): 0.489
- relative viability ([2]; first compound 1 µM): 0.423
- relative viability ([3]; first compound 0.01 µM): 0.255
- relative viability ([3]; first compound 0.03162 µM): 0.237
- relative viability ([3]; first compound 0.1 µM): 0.241
- relative viability ([3]; first compound 0.3162 µM): 0.227
- relative viability ([3]; first compound 1 µM): 0.26
- relative viability ([4]; first compound 0.03162 µM): 0.681
- relative viability ([4]; first compound 0.1 µM): 0.894
- relative viability ([4]; first compound 0.3162 µM): 0.667
- relative viability ([4]; first compound 1 µM): 0.583
- relative viability ([5]; first compound 0.01 µM): 0.646
- relative viability ([5]; first compound 0.03162 µM): 0.657
- relative viability ([5]; first compound 0.1 µM): 0.772
- relative viability ([5]; first compound 0.3162 µM): 0.623
- relative viability ([5]; first compound 1 µM): 0.659
- relative viability ([6]; first compound 0.01 µM): 0.691
- relative viability ([6]; first compound 0.03162 µM): 0.674
- relative viability ([6]; first compound 0.1 µM): 0.624
- relative viability ([6]; first compound 0.3162 µM): 0.589
- relative viability ([6]; first compound 1 µM): 0.635
- relative viability ([7]; first compound 0.01 µM): 0.764
- relative viability ([7]; first compound 0.03162 µM): 1.08
- relative viability ([7]; first compound 0.3162 µM): 0.85
- relative viability ([7]; first compound 1 µM): 0.786
